Results on 32 compounds are retold here after US8497380B2, “Substituted acetophenones useful as PDE4 inhibitors” (Leo Pharma A/S, priority 2006, dated 2013).

pIC50: −log10 of the molar value. Bounds are passed on as bounds.

The subject of this test is Human peripheral blood mononuclear cells (PBMC). The experiment in a line: TNFalfa-Release. To be noted: inhibition of TNF-a secretion, PBMC pre-incubated 30 minutes, stimulated 18 hours with lipopolysaccharide. It counts as cell-based. In a few lines:
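Buffy-coat PBMC at 5×105 c/ml in RPMI1640 with 2% FCS were pre-incubated 30 min with compound, then stimulated 18 h with LPS 1 mg/ml. Supernatant TNF-a measured by enzyme immunoassay; pIC50 from inhibition curves relative to LPS-stimulated and unstimulated wells.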
As to `CCOc1c(OC)ccc(C(=O)Cc2c(Cl)cncc2Cl)c1O` [Compound 262, 2-(3,5-Dichloro-pyridin-4-yl)-1-(3-ethoxy-2-hydroxy-4-methoxy-phenyl)-ethanone], the negative-log IC50 (pIC50) (in general, the IC50 on a negative log10 scale, so that one unit is a factor of ten) was greater than 6.00.

The compound `COc1ccc(C(=O)Cc2c(Cl)cncc2Cl)c(OC(C)Cc2ccccc2)c1OC` (centres unmarked) [Compound 285, 2-(3,5-Dichloro-pyridin-4-yl)-1-[3,4-dimethoxy-2-(1-methyl-2-phenyl-ethoxy)-phenyl]-ethanone] had a negative logarithm of the IC50 (pIC50) greater than 6.00.

Regarding `COc1ccc(C(=O)Cc2c(Cl)cncc2Cl)c(OCCCOc2ccccc2)c1OC` [Compound 145, 2-(3,5-Dichloro-pyridin-4-yl)-1-[3,4-dimethoxy-2-(3-phenoxy-propoxy)-phenyl]-ethanone], the pIC50 is greater than 6.00.

On to `COc1ccc(C(=O)Cc2c(Cl)cncc2Cl)c(OCC(=O)NCc2cc(F)cc(F)c2)c1OC` [Compound 234, 2-{6-[2-(3,5-Dichloro-pyridin-4-yl)-acetyl]-2,3-dimethoxy-phenoxy}-N-(3,5-difluoro-benzyl)-acetamide], for which the pIC50 is greater than 6.00.

`C=CCOc1c(OC)ccc(C(=O)Cc2c(Cl)cncc2Cl)c1OCc1ccccc1C#N` [Compound 267, 2-{2-Allyloxy-6-[2-(3,5-dichloro-pyridin-4-yl)-acetyl]-3-methoxy-phenoxymethyl}-benzonitrile] gave a pIC50 greater than 6.00.

As for `CCCNC(=O)COc1c(C(=O)Cc2c(Cl)cccc2Cl)ccc(OC)c1OC` [Compound 288, 2-{6-[2-(2,6-Dichloro-phenyl)-acetyl]-2,3-dimethoxy-phenoxy}-N-propyl-acetamide], the negative logarithm of the IC50 (pIC50) was greater than 6.00.

`CCOC(=O)CCCCOc1c(C(=O)Cc2c(Cl)cncc2Cl)ccc(OC)c1OC` [Compound 182, 5-{6-[2-(3,5-Dichloro-pyridin-4-yl)-acetyl]-2,3-dimethoxy-phenoxy}-pentanoic acid ethyl ester] gave a pIC50 greater than 6.00.

The compound `COc1ccc(C(=O)Cc2c(Cl)cncc2Cl)c(OCCc2ccc(Cl)cc2)c1OC` [Compound 120, 1-{2-[2-(4-Chloro-phenyl)-ethoxy]-3,4-dimethoxy-phenyl}-2-(3,5-dichloro-pyridin-4-yl)-ethanone] had a pIC50 greater than 6.00.

The compound `COc1ccc(C(=O)Cc2c(Cl)cncc2Cl)c(OCC(=O)NCCCO)c1OC` [Compound 222, 2-{6-[2-(3,5-Dichloro-pyridin-4-yl)-acetyl]-2,3-dimethoxy-phenoxy}-N-(3-hydroxy-propyl)-acetamide] had a pIC50 greater than 6.00.

Compound `COc1ccc(C(=O)Cc2c(Cl)cncc2Cl)c(OCCc2ccc([S+](C)[O-])cc2)c1OC` (centres unmarked) [Compound 281, 2-(3,5-Dichloro-pyridin-4-yl)-1-{2-[2-(4-methanesulfinyl-phenyl)-ethoxy]-3,4-dimethoxy-phenyl}-ethanone] had a pIC50 greater than 6.00.

In the case of `COc1ccc(C(=O)Cc2c(Cl)cncc2Cl)c(OCC(=O)NC[C@@H](O)c2ccccc2)c1OC` [Compound 253, (S)-2-{6-[2-(3,5-Dichloro-pyridin-4-yl)-acetyl]-2,3-dimethoxy-phenoxy}-N-(2-hydroxy-2-phenyl-ethyl)-acetamide], the pIC50 was greater than 6.00.

`COc1ccc(C(=O)Cc2c(Cl)cncc2Cl)c(OCC(=O)OC(C)C)c1OC` [Compound 133, {6-[2-(3,5-Dichloro-pyridin-4-yl)-acetyl]-2,3-dimethoxy-phenoxy}-acetic acid isopropyl ester] showed a negative-log IC50 (pIC50) greater than 6.00.

As to `COc1ccc(C(=O)Cc2c(Cl)cncc2Cl)c(OCC(=O)NCCOc2ccccc2)c1OC` [Compound 231, 2-{6-[2-(3,5-Dichloro-pyridin-4-yl)-acetyl]-2,3-dimethoxy-phenoxy}-N-(2-phenoxy-ethyl)-acetamide], the pIC50 was greater than 6.00.

On to `COc1ccc(C(=O)COc2c(C(=O)Cc3c(Cl)cncc3Cl)ccc(OC)c2OC)cc1` [Compound 146, 2-(3,5-Dichloro-pyridin-4-yl)-1-{3,4-dimethoxy-2-[2-(4-methoxy-phenyl)-2-oxo-ethoxy]-phenyl}-ethanone], for which the pIC50 was greater than 6.00.

The compound `CCCCNC(=O)COc1c(C(=O)Cc2c(Cl)cncc2Cl)ccc(OC)c1OC` [Compound 210, N-Butyl-2-{6-[2-(3,5-dichloro-pyridin-4-yl)-acetyl]-2,3-dimethoxy-phenoxy}-acetamide] showed a pIC50 greater than 6.00.

For `COc1ccc(C(=O)Cc2c(Cl)cncc2Cl)c(OCC(=O)NC2CCCCC2)c1OC` [Compound 215, N-Cyclohexyl-2-{6-[2-(3,5-dichloro-pyridin-4-yl)-acetyl]-2,3-dimethoxy-phenoxy}-acetamide], the pIC50 was greater than 6.00.

`COc1ccc(C(=O)Cc2c(Cl)cncc2Cl)c(OCc2nnc(C3CC3)s2)c1OC` [Compound 117] gave a pIC50 greater than 6.00.

As to `CCOc1c(OC)ccc(C(=O)Cc2c(Cl)cncc2Cl)c1OCCc1ccccc1` [Compound 263, 2-(3,5-Dichloro-pyridin-4-yl)-1-(3-ethoxy-4-methoxy-2-phenethyloxy-phenyl)-ethanone], the pIC50 was greater than 6.00.

`COc1ccc(C(=O)Cc2c(Cl)cncc2Cl)c(OCCOc2ccccc2)c1OC` [Compound 122, 2-(3,5-Dichloro-pyridin-4-yl)-1-[3,4-dimethoxy-2-(2-phenoxy-ethoxy)-phenyl]-ethanone] gave a pIC50 greater than 6.00.

In the case of `COc1ccc(C(=O)Cc2c(Cl)cncc2Cl)c(OCCCN2C(=O)c3ccccc3C2=O)c1OC` [Compound 186, 2-(3-{6-[2-(3,5-Dichloro-pyridin-4-yl)-acetyl]-2,3-dimethoxy-phenoxy}-propyl)-isoindole-1,3-dione], the pIC50 is greater than 6.00.

On to `C=CCCOc1c(OC)ccc(C(=O)Cc2c(Cl)cncc2Cl)c1OCC=C` [Compound 190, 1-(2-Allyloxy-3-but-3-enyloxy-4-methoxy-phenyl)-2-(3,5-dichloro-pyridin-4-yl)-ethanone], for which the pIC50 is greater than 6.00.

Take `COc1ccc(C(=O)Cc2c(Cl)cncc2Cl)c(OCC(=O)O)c1OC` [Compound 504, {6-[2-(3,5-Dichloro-pyridin-4-yl)-acetyl]-2,3-dimethoxy-phenoxy}-acetic acid]: the negative logarithm of the IC50 (pIC50) is greater than 6.00.

`C=CCOc1c(OC)ccc(C(=O)Cc2c(Cl)cncc2Cl)c1O` [Compound 266, 1-(3-Allyloxy-2-hydroxy-4-methoxy-phenyl)-2-(3,5-dichloro-pyridin-4-yl)-ethanone] showed a pIC50 greater than 6.00.

With `COc1ccc(C(=O)Cc2c(Cl)cncc2Cl)c(OCC(=O)NC2c3ccccc3C[C@H]2O)c1OC` (stereo partly drawn) [Compound 256, (2R)-2-{6-[2-(3,5-Dichloro-pyridin-4-yl)-acetyl]-2,3-dimethoxy-phenoxy}-N-(2-hydroxy-indan-1-yl)-acetamide], the pIC50 was greater than 6.00.

Compound `COc1ccc(C(=O)Cc2c(Cl)cncc2Cl)c(OCC(=O)NC2CCCCCC2)c1OC` [Compound 217, N-Cycloheptyl-2-{6-(2-(3,5-dichloro-pyridin-4-yl)-acetyl)-2,3-dimethoxy-phenoxy}-acetamide] gave a pIC50 greater than 6.00.

Compound `COc1ccc(C(=O)Cc2c(Cl)cncc2Cl)c(OCCCc2ccccc2)c1OC` [Compound 124, 2-(3,5-Dichloro-pyridin-4-yl)-1-[3,4-dimethoxy-2-(3-phenyl-propoxy)-phenyl]-ethanone] gave a pIC50 greater than 6.00.

Compound `COCCOc1c(C(=O)Cc2c(Cl)cncc2Cl)ccc(OC)c1OC` [Compound 109, 2-(3,5-Dichloro-pyridin-4-yl)-1-[3,4-dimethoxy-2-(2-methoxy-ethoxy)-phenyl]-ethanone] had a pIC50 greater than 6.00.

The compound `COc1ccc(C(=O)Cc2c(Cl)cncc2Cl)c(OCCc2ccncc2)c1OC` [Compound 277, 2-(3,5-Dichloro-pyridin-4-yl)-1-[3,4-dimethoxy-2-(2-pyridin-4-yl-ethoxy)-phenyl]-ethanone] showed a pIC50 greater than 6.00.

Take `COc1ccc(C(=O)Cc2c(Cl)cncc2Cl)c(OCc2ccccc2)c1OC` [Compound 113, 1-(2-Benzyloxy-3,4-dimethoxy-phenyl)-2-(3,5-dichloro-pyridin-4-yl)-ethanone]: the pIC50 was greater than 6.00.

As to `COc1ccc(C(=O)Cc2c(Cl)cncc2Cl)c(OCCc2cccc(Br)c2)c1OC` [Compound 127, 1-{2-[2-(3-Bromo-phenyl)-ethoxy]-3,4-dimethoxy-phenyl}-2-(3,5-dichloro-pyridin-4-yl)-ethanone], the pIC50 was greater than 6.00.

Compound `COc1ccc(C(=O)Cc2c(Cl)cncc2Cl)c(OCC(=O)NCc2ccccc2)c1OC` [Compound 203, N-Benzyl-2-{6-[2-(3,5-dichloro-pyridin-4-yl)-acetyl]-2,3-dimethoxy-phenoxy}-acetamide] showed a pIC50 greater than 6.00.

For `COc1ccc(C(=O)Cc2c(Cl)cncc2Cl)c(OCc2ncon2)c1OC` [Compound 118, 2-(3,5-Dichloro-pyridin-4-yl)-1-[3,4-dimethoxy-2-([1,2,4]oxadiazol-3-ylmethoxy)-phenyl]-ethanone], the pIC50 is greater than 6.00.
